Values of other authors, collected in PMC6277198, “Molecular basis for activation of lecithin:cholesterol acyltransferase by a compound that increases HDL cholesterol” (eLife, 2018).

Experiments:
[1] = set-up: method as in Shamburek et al., 2016b; details: ref Shamburek et al., 2016b; cited from earlier work
[2] = system: mice and hamsters; set-up: method as in Chen et al., 2012; Freeman et al., 2017; Kayser et al., 2013; details: ref Chen et al., 2012, Freeman et al., 2017, Kayser et al., 2013; cited from earlier work
[3] = system: LCAT; set-up: method as in Kobayashi et al., 2015a; Kobayashi et al., 2015b; details: removal of the C4 hydroxyl group, ref Kobayashi et al., 2015a, 2015b; cited from earlier work

rhLCAT: Recombinant human LCAT, tested in phase I and as enzyme replacement therapy
safety in a phase I study [1]: safe

CCSc1nnc(Sc2nccnc2C#N)s1 [Compound A, 3-(5-(ethylthio)−1,3,4-thiadiazol-2-ylthio)pyrazine-2-carbonitrile]
plasma CE and HDL-C levels [2]: increases

O=C1CC(C(F)(F)F)c2c(C3CCN(c4cnc(C(F)(F)F)cn4)CC3)n[nH]c2N1 (stereo not drawn) [compound 4, 4-(trifluoromethyl)−3-(1-(5-(trifluoromethyl)pyrazin-2-yl)piperidin-4-yl)−1,4,5,7-tetrahydro-6H-pyrazolo[3,4-b]pyridin-6-one]
drop in potency compared with 2 [3]: ~ 6 fold
